SMILES strings stand for the structures.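 Where inhibition never reached the appropriate level, the endpoint shown equals the highest concentration tested. Otherwise, values were interpolated linearly from a five-concentration, 48-hour dose response in 96-well plates. The concentration for 50% growth inhibition is given as GI50.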 Calls of active or inactive are those of the source. Rule as the data show it: active = GI50 up to about 1.1 µM and inactive = higher.

Among the test systems are OVCAR-8; NCI/ADR-RES; HOP-92; PC-3; SF-539; CCRF-CEM; SNB-19; SK-OV-3; SK-MEL-5; OVCAR-5; UACC-62; OVCAR-4; RXF 393; MOLT-4; HCT-15; SF-268; MDA-N; MCF7; NCI-H522; A498.
Assay in all cases: inhibition of tumour cell growth, NCI panel, 48 h

In the case of `NCCN1C(=O)c2ccccc2C1(O)c1ccc(Cl)cc1` (stereo not given), the GI50 in the test with OVCAR-8 is 37.2 µM (inactive); in the test on NCI/ADR-RES it was 37.4 µM (inactive); with HOP-92, 10.4 µM (inactive); in the test with PC-3, 20.3 µM (inactive); in the test with SF-539, 21.6 µM (inactive); in the test on CCRF-CEM it was 25.4 µM (inactive). The GI50 with SNB-19 is 23.1 µM (inactive); in the test on SK-OV-3, 24.4 µM (inactive); with SK-MEL-5, 16.4 µM (inactive); with OVCAR-5, 19.7 µM (inactive); in the test on UACC-62, 16.4 µM (inactive); with OVCAR-4, 28.5 µM (inactive). In addition, the GI50 with RXF 393 was 17.3 µM (inactive); in the test with MOLT-4, 17.3 µM (inactive); with HCT-15, 37.3 µM; in the test with SF-268, 27.1 µM (inactive); in the test with MDA-N, 18.2 µM (inactive); in the test with MCF7, 16.7 µM (inactive). For the same compound, the GI50 in the test with NCI-H522 and in the test with A498 was 14.2 µM (inactive) throughout.

Turning to `COc1cccc(N(CN2CC=CC2=O)C(C)=O)c1`, the GI50 with OVCAR-8, in the test with NCI/ADR-RES, in the test on HOP-92, with PC-3, with SF-539 and with CCRF-CEM was > 100 µM (inactive) in each case. Besides, the GI50 in the test with SNB-19, with SK-OV-3, in the test on SK-MEL-5, in the test with OVCAR-5, in the test with UACC-62 and in the test with OVCAR-4 was > 100 µM (inactive) in each case. Besides, the GI50 in the test with RXF 393 was > 100 µM (inactive); with MOLT-4, > 100 µM (inactive); with HCT-15 it was greater than 100 µM; with SF-268 it was > 100 µM (inactive); in the test with MDA-N it was > 100 µM (inactive); with MCF7, > 100 µM (inactive). Besides, the GI50 with NCI-H522 and with A498 was > 100 µM (inactive) throughout.

As for `CNC(=O)CCCN(C)C(=O)CCCCC(=O)N(C)C`, the GI50 is > 60.8 µM (inactive) in the test with OVCAR-8; > 59 µM (inactive) in the test with NCI/ADR-RES; > 60.1 µM (inactive) in the test with HOP-92; > 54.3 µM (inactive) in the test with PC-3; > 59.8 µM (inactive) in the test on SF-539; 40.5 µM (inactive) in the test on CCRF-CEM. Further, the GI50 in the test with SNB-19 is > 60.1 µM (inactive); in the test with SK-OV-3 it was > 61.5 µM (inactive); in the test with SK-MEL-5, 36.6 µM (inactive); with OVCAR-5 it was > 100 µM (inactive); in the test with UACC-62, > 57.4 µM (inactive); in the test with OVCAR-4, > 100 µM (inactive). Besides, the GI50 in the test with RXF 393 is > 100 µM (inactive); in the test on MOLT-4, 41.6 µM (inactive); in the test with HCT-15 it was greater than 60.4 µM; in the test with SF-268 it was > 60.8 µM (inactive); with MDA-N it was > 60.8 µM (inactive); with MCF7 it was > 62.2 µM (inactive). Further, the GI50 with NCI-H522 was > 58.6 µM (inactive); in the test on A498 it was 34.4 µM (inactive).

For the compound `CCOC(=O)Cn1c(=O)c2cc(-c3ccccc3)cc3c(Cl)nc4c(OC)c(OC)cc1c4c32`, the GI50 is 15.6 µM (inactive) with OVCAR-8; 16.9 µM (inactive) with NCI/ADR-RES; 10.7 µM (inactive) with HOP-92; 15.9 µM (inactive) in the test with PC-3; 87.5 µM (inactive) in the test on SF-539; 5.16 µM (inactive) with CCRF-CEM. Moreover, the GI50 with SNB-19 was 19 µM (inactive); in the test with SK-OV-3, 43.8 µM (inactive); in the test with SK-MEL-5, 24.7 µM (inactive); with OVCAR-5, > 100 µM (inactive); in the test with UACC-62 it was 14.8 µM (inactive); with OVCAR-4, 21.6 µM (inactive). The GI50 in the test on RXF 393 is 14.8 µM (inactive); in the test with MOLT-4, 3.1 µM (inactive); in the test on HCT-15 it was 15 µM; in the test on SF-268 it was 9.93 µM (inactive); in the test on MDA-N, 17.7 µM (inactive); with MCF7 it was 9.14 µM (inactive). Also, the figures for the GI50 in the test with NCI-H522 and in the test with A498 were 14.8 µM (inactive) and 17 µM (inactive), respectively.

As for `COc1ccc2[nH]c3c([N+](=O)[O-])ccc(Cl)c3c(=O)c2c1`, the GI50 is 22 µM (inactive) in the test on OVCAR-8; 25.6 µM (inactive) in the test on NCI/ADR-RES; 14 µM (inactive) in the test with HOP-92; 22.5 µM (inactive) in the test on PC-3; 17.9 µM (inactive) in the test on SF-539; 2.12 µM (inactive) in the test with CCRF-CEM. For the same compound, the GI50 is 51.4 µM (inactive) in the test with SNB-19; > 63.1 µM (inactive) in the test with SK-OV-3; 23.9 µM (inactive) in the test with SK-MEL-5; > 43 µM (inactive) in the test with OVCAR-5; 18 µM (inactive) with UACC-62; 15.4 µM (inactive) in the test on OVCAR-4. Also, the GI50 is 13.6 µM (inactive) in the test with RXF 393; 3.52 µM (inactive) with MOLT-4; 14.2 µM in the test on HCT-15; 20.8 µM (inactive) in the test on SF-268; 21.2 µM (inactive) with MDA-N; 25.1 µM (inactive) with MCF7. Further, the GI50 was 19 µM (inactive) with NCI-H522 and 91.2 µM (inactive) in the test on A498.

For `O=C(CC(=O)c1ccccc1NC1=Cc2ccccc2C(=O)C1=O)C(=O)NC1=C(Cl)C(=O)c2ccccc2C1=O`, the GI50 was 3.12 µM (inactive) in the test with OVCAR-8; 3 µM (inactive) in the test on NCI/ADR-RES; 4.51 µM (inactive) with HOP-92; 2.23 µM (inactive) in the test on PC-3; 4.31 µM (inactive) with SF-539; 2.03 µM (inactive) with CCRF-CEM. The GI50 in the test on SNB-19 was 5.56 µM (inactive); in the test on SK-OV-3 it was 23.3 µM (inactive); in the test on SK-MEL-5, 0.752 µM (active); in the test with OVCAR-5 it was 5.98 µM (inactive); with UACC-62, 1.85 µM (inactive); in the test with OVCAR-4, 3.36 µM (inactive). In addition, the GI50 with RXF 393 was 2.34 µM (inactive); in the test on MOLT-4, 1.24 µM (inactive); in the test with HCT-15, 1.67 µM; in the test on SF-268 it was 2.93 µM (inactive); in the test with MDA-N, 1.75 µM (inactive); in the test on MCF7, 0.804 µM (active). For the same compound, the GI50 with NCI-H522 is 1.91 µM (inactive); in the test with A498, 14.7 µM (inactive).

For the compound `CC(=NNC(=S)Nc1cccc(C)c1)c1cccc(C(C)=NNC(=S)Nc2cccc(C)c2)n1`, the GI50 with OVCAR-8 is 11 µM (inactive); in the test on NCI/ADR-RES, 14.2 µM (inactive); with HOP-92, 17.1 µM (inactive); with PC-3, 22.3 µM (inactive); with SF-539 it was 14.6 µM (inactive); with CCRF-CEM it was 4.22 µM (inactive). Also, the GI50 was 30.5 µM (inactive) with SNB-19; 44.4 µM (inactive) in the test with SK-OV-3; 8.89 µM (inactive) with SK-MEL-5; 34.8 µM (inactive) in the test on OVCAR-5; 15.2 µM (inactive) in the test on UACC-62; 9.95 µM (inactive) in the test with OVCAR-4. Besides, the GI50 in the test with RXF 393 was 16.2 µM (inactive); in the test on MOLT-4 it was 15 µM (inactive); in the test on HCT-15 it was 15.2 µM; in the test on SF-268, 59.2 µM (inactive); in the test on MDA-N, 42 µM (inactive); in the test with MCF7, 22.9 µM (inactive). Besides, the GI50 in the test with NCI-H522 is 21.2 µM (inactive); in the test on A498, 21.9 µM (inactive).

Source of the values: ChEMBL document CHEMBL1201862, “PubChem BioAssay data set” (2004).
